Source: patent publication US9486443B2, “Pharmaceutical composition for preventing or treating hypertriglyceridemia or hypertriglyceridemia-associated diseases” (priority 2011, dated 2016)

Columns and labels:
[1] = test system: hypercholesterolemia-induced animals; assay: Evaluation of triglyceride-inhibitory activities in hypercholesterolemia-induced animals; type: in vivo, New Zealand White rabbits; settings: male rabbits on 1% cholesterol diet
Description: Male New Zealand White rabbits were used as a test animal. All animals, except for the G1 group animals (negative control group, n=4), were fed with an irradiation-sterilized hypercholesterolemia diet, i.e., DYET #620007 (Purina #5321 chow with 1% cholesterol, Dyets, Inc., Bethlehem, Pa. 18017), which was purchased from Central Lab. Animal Inc. In order to induce hypercholesterolemia, the animals were supplied with the diet for more than 8 weeks. After collecting the blood samples from the animals, serum biochemical analyses were performed thereon. Animals having total cholesterol levels of approximately 870 mg/dL were selected as a hypercholesterolemia-induced animal. The test materials were dissolved in saline containing 0.5% carboxymethylcellulose sodium and 1% Tween 80 and then administered directly into the stomach using an oral syringe adapted with a latex catheter, once per day for 4 weeks. The test groups are as in the following Table 1. […] The values in Table 2 represent average triglyceride concentrations (mg/dL) of the respective group.

[2] = test system: hypertriglyceridemia and hypercholesterolemia-induced animals; assay: Evaluation of triglyceride-inhibitory activities in hypertriglyceridemia and hypercholesterolemia-induced animals; type: in vivo, New Zealand White rabbits; settings: oral, Formula 1 20 mg/kg/day, amlodipine 5 mg/kg/day; for average triglyceride concentration, 4 weeks: male rabbits on 0.5% cholesterol, 14% coconut oil diet, once per day for 4 weeks, fasted 12 to 16 hours
Description: Male New Zealand White rabbits were used as a test animal. All animals, except for the G1 group animals (negative control group), were fed with an irradiation-sterilized hypertriglyceridemia and hypercholesterolemia diet, i.e., DYET #621082 (Purina #5321 chow with 0.5% cholesterol, 14% coconut oil & 2% Maltose Dextrin, Dyets, Inc., Bethlehem, Pa. 18017), which was purchased from Saeronbio Inc. In order to induce hypertriglyceridemia and hypercholesterolemia, the animals were supplied with the diet for more than 4 weeks. After collecting the blood samples from the animals, serum biochemical analyses were performed thereon. Animals showing significant changes in total cholesterol levels and triglyceride levels were selected, in comparison with the non-treated control group. The selected animals were divided into 4 groups on the basis of the total cholesterol levels and triglyceride levels, thereby all the groups having substantially equal average values in the total cholesterol levels and triglyceride levels. The test materials were dissolved in saline containing 0.5% carboxymethyl-cellulose sodium and 1% Tween 80 and then administered directly into the stomach using an oral syringe adapted with a latex catheter, once per day for 4 weeks. The test groups are as in the following Table 3.
The blood samples were collected through the jugular vein, from the animals at the day initiating the administration of the test material(s) (i.e., at the time of group-dividing, 0 week), and from the animals (which were fasted for 12 to 16 hours before collecting the blood) at 4 weeks after initiating the administration of the test material(s) (n=4-7).
The triglyceride concentrations in the hypertriglyceridemia and hypercholesterolemia-induced animals as in the above are presented in the following Table 4. The values in Table 4 represent average triglyceride concentrations (mg/dL) of the respective group.

Row | Structure (SMILES) | average triglyceride concentration, 0 week ([1]; baseline sample (0 week), before administration, group average) [mg/dL] | average triglyceride concentration, 2 weeks ([1]; oral, once per day, 2 weeks after initiating administration, fasted 12 to 16 hours, Formula 1 20 mg/kg/day, amlodipine 5, fenofibrate 30) [mg/dL] | average triglyceride concentration, 4 weeks ([1]; oral, once per day, 4 weeks after initiating administration, fasted 12 to 16 hours, Formula 1 20 mg/kg/day, amlodipine 5, fenofibrate 30) [mg/dL] | inhibition at 20 mg/kg ([2]; Oryctolagus cuniculus, 672 h, 4 weeks, in comparison with the G2 group, once per day, read-out: Percent inhibition of triglyceride in the blood) [%] | average triglyceride concentration, 4 weeks [2] [mg/dL] | Percent inhibition of triglyceride in the blood ([2]; 4 weeks, in comparison with the G2 group, once per day) [%]
1 | COc1cc(F)c(C(C)C)cc1-c1ccc(C(F)(F)F)cc1CN1C(=O)O[C@H](c2cc(C(F)(F)F)cc(C(F)(F)F)c2)[C@@H]1C [Compound of Formula 1, (4S,5R)-5-[3,5-bis(trifluoromethyl)phenyl]-3-({2-[4-fluoro-2-methoxy-5-(propan-2-yl)phenyl]-5-(trifluoromethyl)phenyl}methyl)-4-methyl-1,3-oxazolidin-2-one] | 167.4 | 255.8 | 356.7 | 10.2 | 293.1 | –
2 | CCOC(=O)C1=C(COCCN)NC(C)=C(C(=O)OC)C1c1ccccc1Cl (stereo not shown) [Amlodipine, reference compound] | – | – | – | – | 268.0 | 17.9
